Data set [1] can be described thus: Liver distribution of cinobufotalin in normal and DEN-injured rats. As to conditions: male, Sprague Dawley, rat, iv, 2.5 mg/kg, i.v. 2.5 mg/kg, after the last sampling time point (24 h), read-out: concentration of cinobufotalin in liver tissues. Type of data set: in vivo. How it is done:
For PK studies, the rats were randomly divided into two experimental groups (10 rats for normal rats group and 20 rats for DEN-injured rats group, considering the animal casualties during the modeling process). HCC rat model was established by intraperitoneal administration of 50 mg/kg DEN two times per week ([Fuchs et al., 2014]), and the control group rats were treated with normal saline in the same way. After 14 weeks of administration, three rats were randomly selected and anesthetized by anesthesia cocktail (Ketamine 50 mg/mL, Xylazine 3.3 mg/mL and Acetopromazine 3.3 mg/mL). Then the liver was taken out and photographed to determine whether the animal model was successfully constructed.
Before PK experiment, a cannula was introduced into the jugular vein of the anesthetized rat and administrated carprofen subcutaneously after the surgery. After observation for 24 h, when the activity and excretion of rats were normal, rats were dosed with cinobufotalin at 2.5 mg/kg through jugular vein cannula. Blood samples (200 μL) were withdrawn at each pointed time (5, 10, 15, 30, 45 min, and 1, 1.5, 2, 4, 6, 8, 12, and 24 h) after dosing, and whole blood was transferred into tubes pre-treated with heparin (1000 U/mL). Then an equal volume of saline was injected into rats through jugular vein cannula immediately. […]

The subject of another data set is HepG2 cells. Put plainly: Wound healing assay, HepG2 cells. Type of data set: cell-based. As to conditions: 40, 60 and 80 nM, 24 h. The method, then:
Hepatocellular cancer cells (HepG2 and Huh-7) were purchased from the cell bank of the Chinese Academy of Science (Shanghai, China). These cells were cultured in Dulbecco’s modified Eagle’s medium (DMEM) containing 10% fetal bovine serum (FBS), penicillin (100 units/mL) and streptomycin (100 units/mL) in a humidified atmosphere with 5% CO2 at 37 °C.
Wound healing assay was used to investigate the effect of cinobufotalin on the migration of HepG2 and Huh-7 cells. Cells were seeded into 6-well plates at the density of 4 × 10^5 cells/well and maintained until reaching monolayer confluence. The cells were scratched using 20-μL pipette tips and rinsed with PBS buffer for three times. And then the cells were cultured in serum-free medium containing different concentrations of cinobufotalin (40, 60, 80 nM). After treatment with cinobufotalin for different lengths of time (0 and 24 h), the width of wound was measured and the images of cells were acquired using inverted microscope (Leica, Wetzlar, German). The rate of wound healing = [(the wound width of 0 h - 24 h)/0 h wound width] × 100%. All experiments were performed in triplicate.

On the set-up of data set [2]: method as in Bick et al., 2002; Bi et al., 2016. As to conditions: ref Bick et al., 2002, Bi et al., 2016; cited from earlier work.

Like-named read-outs stand apart in the source and are kept apart here.

Consider `CC(=O)O[C@H]1[C@H]2O[C@]23[C@@H]2CC[C@]4(O)C[C@@H](O)CC[C@]4(C)[C@H]2CC[C@]3(C)[C@H]1c1ccc(=O)oc1` [Cinobufotalin], for which the concentration at 24 h was 0.021 ± 0.0027 µg/mL in data set [1] (DEN-injured rats) and 0.0393 ± 0.0049 µg/mL in data set [1] (normal rats). In the data set with HepG2 cells, the “migration of HepG2 cells (wound healing)” value is listed as “significantly attenuated”. Moreover, the “toxicity on over dose” value in data set [2] was “cardiotoxicity and neurotoxicity”.

(Values after article PMC6533572, “Elucidation of the Differences in Cinobufotalin’s Pharmacokinetics Between Normal and Diethylnitrosamine-Injured Rats: The Role of P-Glycoprotein” (Frontiers in Pharmacology, 2019).)
